Experimental data published in ChEMBL document CHEMBL1132847, “Substituted 1,6-naphthyridines as human cytomegalovirus inhibitors: conformational requirements” (Bioorg Med Chem Lett, 2000).
Values after ≈ are worked out from the molar mass of the structure shown.

Tested on: Human betaherpesvirus 5
Experiment: Concentration required to inhibit human cytomegalovirus by 50 percent
Type: functional, organism-based

IC50 [µg/mL]	SMILES
0.5 (≈ 1.57 µM)	O=C(NC1CCCOc2ccccc21)c1ccc2cnccc2n1 (stereo not drawn)
0.005 (≈ 0.0156 µM)	CC(C)Oc1ccccc1CNC(=O)c1ccc2cnccc2n1
20 (≈ 65.5 µM)	O=C(NC1CCOc2ccccc21)c1ccc2cnccc2n1 (stereo not drawn)
> 25	COc1ccccc1CN(C)C(=O)c1ccc2cnccc2n1
1 (≈ 3.61 µM)	Cc1ccccc1CNC(=O)c1ccc2cnccc2n1
0.0004 (≈ 0.00119 µM)	Cc1cncc2ccc(C(=O)NCc3ccccc3OC(C)C)nc12
0.1 (≈ 0.325 µM)	CCOc1ccccc1CNC(=O)c1ccc2cnccc2n1
1 (≈ 2.88 µM)	O=C(NCc1ccccc1OC(F)(F)F)c1ccc2cnccc2n1
